Reference: ChEMBL document CHEMBL1687935, “Ferrocenyl chalcones versus organic chalcones: a comparative study of their nematocidal activity” (Bioorg Med Chem, 2011)
The source made the active and inactive calls. No cut-off for these calls is given here.

How the values were obtained:
[1] = test system: Caenorhabditis elegans; experiment: Nematocidal activity against Caenorhabditis elegans assessed as inhibition of reproduction on day 3; format: functional
[2] = test system: Caenorhabditis elegans; experiment: Nematocidal activity against Caenorhabditis elegans assessed as mortality on day 3; format: functional; parameters: concentration or dose not given beside the values
[3] = Inhibition of Globodera pallida hatching; format: functional
[4] = Toxicity against Globodera pallida
[5] = Inhibition of Globodera rostochiensis hatching; format: functional
[6] = Toxicity against Globodera rostochiensis
[7] = test system: Plasmodium falciparum; experiment: Antiplasmodial activity against Plasmodium falciparum; format: functional, organism-based

| SMILES | inhibition (INH) [1] | Activity [2] | further results |
| --- | --- | --- | --- |
| O=C(/C=C/c1ccccc1)c1ccc(F)cc1F | 0% | 100% |  |
| O=C(/C=C/c1ccccc1)c1ccco1 |  | Active | inhibition [1]: Active |
| O=C(/C=C/c1ccccc1)c1ccccc1 [CHALCONE] | 0% | 100% | IC50 [3]: 7 mM; LC50 [4]: 33 mM; IC50 [5]: 7 mM; LC50 [6]: 33 mM |
| O=C(/C=C/c1ccccc1)c1cccs1 | 0% | 100% |  |
| CCCCOc1ccc(C(=O)/C=C/c2ccccc2)cc1 |  | Active | inhibition [1]: Active |
| O=C(/C=C/c1ccccc1)c1cccc(Cl)c1 | 0% | 100% |  |
| COc1ccc(C(=O)/C=C/c2ccccc2)c(OC)c1 | 0% | 100% |  |
| O=C(/C=C/c1cccnc1)c1ccc(F)cc1 | 0% | 100% | IC50 [7]: 0.017 mM |
| CCOc1ccc(C(=O)/C=C/c2ccccc2)cc1 | 0% | 100% |  |
| O=C(/C=C/c1ccccc1)c1ccc(Cl)cc1Cl | 0% | 100% |  |
| O=C(/C=C/c1ccccc1)c1ccccc1Cl |  | Active | inhibition [1]: Active |
